Data reported in patent US20220120753A1, “METHOD FOR DETERMINING PROGNOSIS OF CANCER” (The University of Tokyo, priority 2018, published 2022).
Peptide text beside a SMILES is read from it. * marks the point of attachment. Cbz = O=C(OCc1ccccc1)*

B1: Estrogen receptor α (ERα) (receptor, UniProt P03372 1-595, looked up)
chain: MTMTLHTKASGMALLHQIQGNELEPLNRPQLKIPLERPLGEVYLDSSKPAVYNYPEGAAYEFNAAAAANAQVYGQTGLPYGPGSEAAAFGSNGLGGFPPLNSVSPSPLMLLHPPPQLSPFLQPHGQQVPYYLENEPSGYTVREAGPPAFYRPNSDNRRQGGRERLASTNDKGSMAMESAKETRYCAVCNDYASGYHYGVWSCEGCKAFFKRSIQGHNDYMCPATNQCTIDKNRRKSCQACRLRKCYEVGMMKGGIRKDRRGGRMLKHKRQRDDGEGRGEVGSAGDMRAANLWPSPLMIKRSKKNSLALSLTADQMVSALLDAEPPILYSEYDPTRPFSEASMMGLLTNLADRELVHMINWAKRVPGFVDLTLHDQVHLLECAWLEILMIGLVWRSMEHPGKLLFAPNLLLDRNQGKCVEGMVEIFDMLLATSSRFRMMNLQGEEFVCLKSIILLNSGVYTFLSSTLKSLEEKDHIHRVLDKITDTLIHLMAKAGLTLQQQHQRLAQLLLILSHIRHMSNKGMEHLYSMKCKNVVPLYDLLLEMLDAHRLHAPTSRGGASVEETDQSHLATAGSTSSHSLQKYYITGEAEGFPATV
notes: Endogenous ERα in MCF-7 nuclear extract or cell lysate; also called ERalpha

Tests used:
[1] = test system: ERα-dependent transcription; assay: qPCR of ERα target gene transcripts (EBAG9, GREB1) in MCF-7 cells; assay type: cell-based, human; conditions: for effect of removing Fbxo22 on the antagonistic activity: MCF-7 expressing Dox-induced shRNAs, E2 6 h then drug 12 h
Protocol: (§1) Using total RNA derived from individual cells recovered over time, qPCR was carried out. […] Using total RNA prepared from the treated cells, qPCR was carried out. […] Using the nucleus extract, immunoprecipitation and immunoblotting were carried out.
Using total RNA prepared from the cells over time, qPCR was carried out.
(§2) Total RNA was prepared from the cells treated with various drugs, and qPCR was carried out.
The cells were washed with PBS three times, and were then cultured in phenol red-non-added DMEM (supplemented with 5% charcoal-stripped FBS) for 72 hours.
Quantitative RT-PCR was carried out according to the method described in Johmura et al., Molecular Cell 55: 73-84, 2014. Total RNA was extracted using ISOGEN II (Wako), and using this as a template, cDNA was synthesized using SuperScript II cDNA synthesis kit (Invitrogen). PCR amplification was carried out in a 96-well optical reaction plate, using Power SYBR Green PCR Master Mix (Applied Biosystems). The relative expression ratio of individual genes was normalized with respect to the expression level of GAPDH.

[2] = test system: ERα complex with KDM4B and SRC-3
Protocol: as §1
The obtained cells were immunostained with anti-FLAG antibodies. Representative images are shown.
as §2
Immunoprecipitation and immunoblotting were carried out according to the method described in Johmura et al., Molecular Cell 55: 73-84, 2014. The cells were dissolved in a TBSN buffer (20 mM Tris-Cl (pH 8.0), 150 mM NaCl, 0.5% NP-40, 5 mM EGTA, 1.5 mM EDTA, and 0.5 mM Na3VO4). The obtained cell lysate was centrifuged at 4° C. at 15,000×g for 20 minutes, and was then used in immunoprecipitation using an antibody.
Regarding immunoprecipitation of ERα and KDM4B, a nuclear extract was prepared according to the method described in Hirokawa et al., Cancer Res. 74: 3880-3889, 2014. Cell pellets were suspended in buffer A (10 mM Hepes-KOH pH 7.9, 10 mM KCl, 1.5 mM MgCl2, 0.5 mM DTT, 0.5 mM PMSF, and protease inhibitor cocktail (Nakalai Tesque)) having five times the volume of the cell pellets, and the suspension was then incubated on ice for 5 minutes. Thereafter, the cells were centrifuged at 4° C. at 500×g for 5 minutes, and the obtained cell pellets were then suspended in buffer A having two times the volume of the cell pellets for homogenization. The homogenized cell suspension was centrifuged at 4° C. at 4,000×g for 5 minutes, and a cell nucleus was recovered in a precipitate. To the recovered nucleus, an equal amount of buffer B (20 mM Hepes-KOH pH 7.9, 600 mM KCl, 1.5 mM MgCl2, 0.2 mM EDTA, 25% glycerol, 0.5 mM DTT, 0.5 mM PMSF, and protease inhibitor cocktail) was added and suspended, and the obtained mixture was then blended at 4° C. for 30 minutes, using a rotator. The nuclear extract was centrifuged at 4° C. at 16,000×g for 15 minutes, and was then recovered in a supernatant. The nuclear extract was dialyzed against buffer C (20 mM Hepes-KOH pH 7.9, 100 mM KCl, 0.2 mM EDTA, 20% glycerol, 0.5 mM DTT, and 0.5 mM PMSF). After completion of the dialysis, the nuclear extract was centrifuged at 4° C. at 16,000×g for 30 minutes, and the remaining precipitate was then eliminated.
A protein (20 to 50 μg) was separated from the total cell lysate by SDS-PAGE, and was then transferred into a PVDF membrane (Millipore), which was then used in immunoblotting using various types of antibodies.

[3] = test system: ERα; assay: ChIP-Seq analysis of ERα binding in MCF-7 cells; assay type: cell-based, human; conditions: 2 hours, E2 line = E2 (10 nM), 4-OHT line = E2+4-OHT
Excerpt: Thereafter, DNA was extracted using a DNA purification column.

[4] = target: T1, N-CoR repressor (UniProt O75376 1-2440, limits assumed); assay: co-IP and immunoblot, control MCF-7 nuclear extract after E2 then 4-OHT (FIG. 5B)
T1 construct: Endogenous corepressor in MCF-7 nuclear extract

[5] = target: T2, KDM4B (UniProt O94953 1-1096); assay: co-IP (IP: ER) and immunoblot, MCF-7 nuclear extract after E2 (FIG. 2B)
T2 construct: Endogenous KDM4B in MCF-7 nuclear extract or cell lysate; also called histone lysine demethylase KDM4B
T2 sequence (looked up): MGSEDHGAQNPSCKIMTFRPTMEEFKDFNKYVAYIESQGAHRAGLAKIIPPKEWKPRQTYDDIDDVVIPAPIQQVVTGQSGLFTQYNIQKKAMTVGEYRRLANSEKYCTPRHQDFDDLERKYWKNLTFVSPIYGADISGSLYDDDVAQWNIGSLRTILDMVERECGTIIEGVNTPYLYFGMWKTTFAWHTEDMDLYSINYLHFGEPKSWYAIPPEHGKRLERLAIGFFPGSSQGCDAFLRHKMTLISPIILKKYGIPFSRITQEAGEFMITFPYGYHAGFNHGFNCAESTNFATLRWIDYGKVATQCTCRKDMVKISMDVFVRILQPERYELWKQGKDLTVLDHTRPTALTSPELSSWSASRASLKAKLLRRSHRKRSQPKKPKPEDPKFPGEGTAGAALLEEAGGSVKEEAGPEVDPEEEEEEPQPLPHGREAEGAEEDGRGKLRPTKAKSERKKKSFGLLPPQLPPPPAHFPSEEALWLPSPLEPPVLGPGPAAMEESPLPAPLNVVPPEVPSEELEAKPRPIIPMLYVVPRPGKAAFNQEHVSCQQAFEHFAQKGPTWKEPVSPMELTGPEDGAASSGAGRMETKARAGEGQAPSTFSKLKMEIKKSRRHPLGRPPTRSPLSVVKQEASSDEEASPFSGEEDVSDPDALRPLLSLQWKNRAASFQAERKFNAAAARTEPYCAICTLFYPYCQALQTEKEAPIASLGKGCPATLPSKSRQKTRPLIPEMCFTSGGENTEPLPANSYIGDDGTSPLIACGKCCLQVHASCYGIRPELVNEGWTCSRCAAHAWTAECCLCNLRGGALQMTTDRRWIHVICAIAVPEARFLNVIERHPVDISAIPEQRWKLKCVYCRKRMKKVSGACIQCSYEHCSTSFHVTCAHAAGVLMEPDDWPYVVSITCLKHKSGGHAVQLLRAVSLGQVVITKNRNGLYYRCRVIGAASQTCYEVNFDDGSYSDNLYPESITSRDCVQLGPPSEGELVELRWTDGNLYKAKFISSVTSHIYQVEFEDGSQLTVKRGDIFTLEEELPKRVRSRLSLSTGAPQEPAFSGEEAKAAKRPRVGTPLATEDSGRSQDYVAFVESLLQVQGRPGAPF

[6] = target: B1; assay: anti-FLAG co-IP and immunoblot, MCF-7 cells expressing FLAG-Fbxo22 Wt or domain-deficient mutants (FIG. 3G)
[7] = target: T2, KDM4B; assay: co-IP and immunoblot, E2-depleted MCF-7 cells with MG132 and 0.1, 1 or 10 nM E2 (FIG. 3I)

T1 sequence (O75376 whole entry): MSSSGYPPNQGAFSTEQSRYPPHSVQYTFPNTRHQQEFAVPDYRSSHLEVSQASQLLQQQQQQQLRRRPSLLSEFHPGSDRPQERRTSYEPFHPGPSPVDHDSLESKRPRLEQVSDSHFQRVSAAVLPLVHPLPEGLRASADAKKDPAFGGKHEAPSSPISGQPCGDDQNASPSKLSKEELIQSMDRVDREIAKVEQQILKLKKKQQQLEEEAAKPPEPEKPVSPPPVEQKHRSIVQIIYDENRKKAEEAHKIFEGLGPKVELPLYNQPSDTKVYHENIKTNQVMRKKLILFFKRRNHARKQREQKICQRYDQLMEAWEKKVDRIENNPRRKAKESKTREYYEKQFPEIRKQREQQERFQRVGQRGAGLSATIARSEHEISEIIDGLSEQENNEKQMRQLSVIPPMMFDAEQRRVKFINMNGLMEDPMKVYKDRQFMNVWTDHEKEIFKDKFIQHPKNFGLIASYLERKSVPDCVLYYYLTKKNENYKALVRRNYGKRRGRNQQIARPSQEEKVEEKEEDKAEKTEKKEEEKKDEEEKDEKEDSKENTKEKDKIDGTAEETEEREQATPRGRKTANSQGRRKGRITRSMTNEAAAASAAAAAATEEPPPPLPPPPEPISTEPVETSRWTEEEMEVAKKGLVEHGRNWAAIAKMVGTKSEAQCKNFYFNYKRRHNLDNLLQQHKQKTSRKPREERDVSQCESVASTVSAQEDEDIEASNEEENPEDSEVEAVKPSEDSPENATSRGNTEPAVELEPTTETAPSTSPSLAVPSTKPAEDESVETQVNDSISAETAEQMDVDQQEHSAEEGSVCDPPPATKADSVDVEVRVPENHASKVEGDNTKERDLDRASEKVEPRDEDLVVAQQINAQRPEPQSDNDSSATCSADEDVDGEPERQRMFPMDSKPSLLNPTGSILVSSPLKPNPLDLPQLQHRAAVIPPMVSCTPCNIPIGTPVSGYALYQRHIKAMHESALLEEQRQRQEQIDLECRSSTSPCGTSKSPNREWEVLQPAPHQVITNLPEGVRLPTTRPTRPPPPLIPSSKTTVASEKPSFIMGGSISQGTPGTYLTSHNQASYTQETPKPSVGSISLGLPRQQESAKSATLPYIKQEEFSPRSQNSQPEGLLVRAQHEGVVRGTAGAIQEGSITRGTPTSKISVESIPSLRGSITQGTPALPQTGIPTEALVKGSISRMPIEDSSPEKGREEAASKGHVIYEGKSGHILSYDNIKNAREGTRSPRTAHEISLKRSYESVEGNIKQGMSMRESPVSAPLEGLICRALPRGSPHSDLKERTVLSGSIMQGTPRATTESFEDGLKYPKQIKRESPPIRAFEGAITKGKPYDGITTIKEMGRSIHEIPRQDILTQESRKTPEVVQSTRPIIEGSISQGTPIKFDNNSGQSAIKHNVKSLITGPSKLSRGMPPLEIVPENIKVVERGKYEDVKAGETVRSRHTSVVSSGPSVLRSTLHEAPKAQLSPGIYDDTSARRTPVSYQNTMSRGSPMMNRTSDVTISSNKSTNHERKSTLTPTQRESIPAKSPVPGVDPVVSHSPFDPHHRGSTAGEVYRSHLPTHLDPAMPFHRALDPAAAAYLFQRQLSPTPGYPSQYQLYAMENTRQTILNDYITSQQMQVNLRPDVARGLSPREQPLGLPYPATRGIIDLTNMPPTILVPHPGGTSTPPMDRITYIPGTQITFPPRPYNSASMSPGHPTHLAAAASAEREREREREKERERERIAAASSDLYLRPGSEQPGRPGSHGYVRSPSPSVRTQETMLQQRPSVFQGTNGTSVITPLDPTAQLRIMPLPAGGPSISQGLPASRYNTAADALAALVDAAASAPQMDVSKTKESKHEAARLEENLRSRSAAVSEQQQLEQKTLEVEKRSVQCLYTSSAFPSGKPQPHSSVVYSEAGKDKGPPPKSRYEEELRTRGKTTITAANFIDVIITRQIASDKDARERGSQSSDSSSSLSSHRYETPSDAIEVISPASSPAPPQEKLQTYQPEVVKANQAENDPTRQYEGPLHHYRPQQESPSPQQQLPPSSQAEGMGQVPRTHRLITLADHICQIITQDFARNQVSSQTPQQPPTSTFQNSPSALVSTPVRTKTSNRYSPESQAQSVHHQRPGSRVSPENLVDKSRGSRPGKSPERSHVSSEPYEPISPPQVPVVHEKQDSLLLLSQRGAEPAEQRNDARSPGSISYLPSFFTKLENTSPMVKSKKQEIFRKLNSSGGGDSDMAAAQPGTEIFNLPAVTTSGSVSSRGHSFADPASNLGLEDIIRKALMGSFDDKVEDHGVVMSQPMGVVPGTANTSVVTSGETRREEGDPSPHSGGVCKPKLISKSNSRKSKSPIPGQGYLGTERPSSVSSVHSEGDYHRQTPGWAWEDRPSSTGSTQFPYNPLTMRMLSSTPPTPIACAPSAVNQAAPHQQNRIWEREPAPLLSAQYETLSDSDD

Question: For `CN(C)CCOc1ccc(/C(=C(/CCCl)c2ccccc2)c2ccccc2)cc1` [Toremifene], which “effect of removing Fbxo22 on the antagonistic activity” value [1] is on record?
Answer: effects similar to those on 4-OHT

Question: What does the source list for `C[C@]12CC[C@@H]3c4ccc(O)cc4C[C@@H](CCCCCCCCC[S+]([O-])CCCC(F)(F)C(F)(F)F)[C@H]3[C@@H]1CC[C@@H]2O` (stereo partly shown) [Fulvestrant]?
Answer: need of Fbxo22 for the dynamics of cofactors in treated cells ([2]; MCF-7, E2 plus drug): not necessary; effect of removing Fbxo22 on the antagonistic activity [1]: no effects

Question: What does the source list for `CC(C)C[C@@H](C=O)NC(=O)[C@H](CC(C)C)NC(=O)[C@H](CC(C)C)NC(=O)OCc1ccccc1` [MG132] (Cbz-Leu-Leu-Leu-aldehyde)?
Answer: dynamics of cofactors (complex dissociation, N-CoR binding) after 4-OHT ([2]; MCF-7, E2+4-OHT+MG132): suppressed; dissociation of KDM4B and SRC-3 from ERα by elimination of E2 ([2]; MCF-7, E2 depletion plus proteasome inhibitor): suppressed; E2-induced transcriptional activity of EBAG9 and GREB1 after removal of E2 ([1]; MCF-7, E2 removed from medium, proteasome inhibitor added): recovered; transcript levels of EBAG9 and GREB1 after treatment with 4-OHT ([1]; MCF-7, E2 then 4-OHT, in the presence of MG132 (10 μg/ml) compared with absence): maintained at high levels

Question: With `C[C@]12CC[C@@H]3c4ccc(O)cc4CC[C@H]3[C@@H]1CC[C@@H]2O` [E2, Estradiol] as the molecule, how does the “ERα accumulation peaks detected” value ([3]; Fbxo22-depleted MCF-7 cells) read?
Answer: 23,213

Question: What about the “ERα accumulation peaks detected” value ([3]; wild-type/control MCF-7 cells) of the same molecule?
Answer: 1,264

Question: Does B1 bind [4]?
Answer: binds

Question: Does B1 bind [5]?
Answer: binds

B2: wild-type FLAG-Fbxo22 (Wt) (other)
chain: MEPVGCCGECRGSSVDPRSTFVLSNLAEVVERVLTFLPAKALLRVACVCRLWRECVRRVLRTHRSVTWISAGLAEAGHLEGHCLVRVVAEELENVRILPHTVLYMADSETFISLEECRGHKRARKRTSMETALALEKLFPKQCQVLGIVTPGIVVTPMGSGSNRPQEIEIGESGFALLFPQIEGIKIQPFHFIKDPKNLTLERHQLTEVGLLDNPELRVVLVFGYNCCKVGASNYLQQVVSTFSDMNIILAGGQVDNLSSLTSEKNPLDIDASGVVGLSFSGHRIQSATVLLNEDVSDEKTAEAAMQRLKAANIPEHNTIGFMFACVGRGFQYYRAKGNVEADAFRKFFPSVPLFGFFGNGEIGCDRIVTGNFILRKCNEVKDDDLFHSYTTIMALIHLGSSK
notes: Dox-induced expression in MCF-7 cells; The tag is placed first by the order in the name; not shown: FLAG tag
Question: Does B2 bind [6]?
Answer: binds

Question: Does B2 bind [7]?
Answer: binds
